In US10426769B2, “Pharmaceutical composition for preventing and treating obesity or liver diseases, containg TLR7 agonist” (KNOTUS CO., LTD., priority 2015, dated 2019):

How the values were obtained:
[1] = system: SREBP-1, FAS, aP2 and PPARγ gene expression; assay: Real time RT-PCR of fat-related genes in UFAs-treated mouse hepatocytes; type: cell-based; settings: imiquimod 10 μg/ml
Procedure: (§1) The imiquimod purchased in Example 1 was tested in cells. Mouse hepatocytes were obtained by cellizing liver tissues isolated from normal C57BL6/J mice and TLR7 KO mice lacking the TLR7 gene and fat accumulation was induced by treatment with 10 mM of unsaturated fatty acid (UFAs) mixed with arachidonic acid (Sigma, USA) and oleic acid (Sigma, USA) 1:1.
(§2) Cells were incubated at 37° C., 5% of CO2. DMEM (Dulbecco's modified Eagle's medium) containing 10% fetal bovine serum (FBS) and antibiotic (penicillin/streptomycin; Gibco, USA) was used as the cell culture medium. Every two days, the surface of the cultured cells was washed with phosphate buffered saline (PBS) and cells were isolated by treatment with 0.5% trypsin and then subcultured.
(§3) The imiquimod was treated at the concentration of 10 μg/ml 1 hour before the start of the experiment. UFAs were then added and the fat accumulation was assessed after 48 hours.
To determine the level of RNA expression at the gene level of fatty acid synthase (FAS), SREBP-1 (sterol regulatory element binding protein-1), PPARγ (peroxisome proliferator-activated receptor), and aP2 (fatty acid binding protein 4), real time RT-PCR (ABI Step One Plus Sequence System, Applied Biosystems, Singapore) was performed. The PPARγ and FAS are directly related to fat metabolism, and since the metabolism is regulated by the aP2 and SREBP-1 factor, it was determined whether imiquimod affects the factor.
From the above results, it was confirmed that imiquimod inhibited lipid accumulation in hepatocytes through inhibition of SREBP-1, FAS, aP2 and PPARγ gene expression.

LC3A/B and IGF-1 [2] = assay: LC3A/B and IGF-1 protein expression in liver tissue of fatty liver mice; type: in vivo, mouse; settings: fatty liver induced by UFAs, imiquimod 0.1 mg/kg twice a week, proteins from liver tissue
Procedure: (§4) C57BL6/J mice (Daehan Biolink, Daejeon, Korea) that induced obesity with feed containing 45% UFAs for 8 weeks and a knockout mouse (TLR7 KO) from Dr. Akira (Osaka University, Suita, Japan) in which TLR7 is not inherently present, were used. For this purpose, imiquimod was injected twice a week at a concentration of 0.1 mg/kg, while fatty liver model was made by feeding only high unsaturated fat diet (UFAs diet with 45% of the calories, Daehan Biolink, Daejeon, Korea) for 8 weeks.
Autophagosome associated with congenital immunity, and expression of IGF-1 associated with fatty liver development were compared and evaluated with proteins isolated from liver tissue. Similar to the protein isolated from the hepatocytes, and expression of TLR7 and its downstream transcript Myd88 was also confirmed, and as a result, we confirmed that imiquimod affects the expression of LC3A/B, an autophagosome marker, and IGF-1, a hepatocyte-producing protein, through TLR7 hyperactivity.

Mouse hepatocytes = assay: Fat accumulation in UFAs-treated mouse hepatocytes (oil-red-o staining, absorbance at 540 nm); type: cell-based; settings: imiquimod 10 μg/ml 1 hour before UFAs, 48 hours, vs group without treatment
Procedure: as §1, §2, §3
In order to confirm that imiquimod inhibits the fat accumulation effect in hepatocytes, the cells were cultured for 48 hours after the reagent treatment according to the method of Example 2 above. The cells were stained with an oil-red-o reagent (Lifeline Cell Technology, Carlsbad, Calif., USA) and the accumulation of fat was visually evaluated (FIG. 1).

C57BL6/J mice [3] = assay: Fatty liver in mice fed high unsaturated fat diet, liver tissue and H & E staining; type: in vivo, mouse; settings: 45% UFAs diet 8 weeks, imiquimod 0.1 mg/kg injected twice a week
Procedure: as §4
As a result of H & E staining of tissue sections, balloon, a sign of fat accumulation between cells and cells, was found in UFAs fed mice, which was confirmed to be improved by imiquimod injection.

[4] = system: SREBP-1, FAS, PPAR-γ, and aP2; assay: Real-time RT-PCR of fat-induced genes in liver tissue of fatty liver mice; type: in vivo, mouse; settings: UFAs feed 8 weeks, imiquimod 0.1 mg/kg twice a week, liver mRNA
Procedure: as §4
Fat-induced genes such as SREBP-1, FAS, PPAR-γ, and aP2 were increased in liver tissues from liver-derived mice fed UFAs compared to the control group.

C57BL6/J mice [5] = assay: Serological analysis of fatty liver mice (AST, ALT, triglyceride, total cholesterol); type: in vivo, mouse; settings: UFAs feed 8 weeks, imiquimod 0.1 mg/kg twice a week
Procedure: as §4

C57BL6/J mice [6] = assay: Triglyceride and cholesterol in liver tissue of fatty liver mice (ELISA); type: in vivo, mouse; settings: UFAs feed 8 weeks, imiquimod 0.1 mg/kg twice a week
Procedure: as §4
The liver tissues separated from the mouse were finely crushed to prepare analytical samples, and the levels of triglyceride and cholesterol were measured using Enzyme Linked ImmunoSorbent Assay (ELISA) (FIG. 7).

LC3A/B and IGF-1 [7] = assay: LC3A/B and IGF-1 protein levels in UFAs-treated mouse hepatocytes; type: cell-based; settings: proteins isolated from hepatocytes, imiquimod treatment
Procedure: as §1, §2, §3
In FIG. 3, expression of autophagosome associated with congenital immunity and IGF-1 associated with fatty liver development was compared and evaluated. According to recently published international journals, It has been reported that as the expression of LC3A/B, an indicator of autophagosome increases, fatty liver improves, and as IGF-1 is inhibited, the fatty liver improves.

With `CC(C)Cn1cnc2c(N)nc3ccccc3c21` [imiquimod] the “expression of FAS” value [1] was “inhibited the expression”, the “expression of PPARγ” value [1] was “inhibited the expression” and the “expression of SREBP-1” value [1] was “inhibited the expression”. The “expression of aP2” value [1] was “inhibited the expression”, the “IGF-1 expression in liver tissue” value (LC3A/B and IGF-1 [2]) was “decreased” and the “LC3A/B expression in liver tissue” value (LC3A/B and IGF-1 [2]) was “significantly increased”. For the same compound, the “level of fat (absorbance at 540 nm)” value (Mouse hepatocytes) was “lower than that in the group without treatment”, the “balloon (sign of fat accumulation), H & E staining of tissue sections” value (C57BL6/J mice [3]) was “improved” and the “development of fatty liver (evaluation of liver tissue)” value (C57BL6/J mice [3]) was “significant inhibition”. For the same compound, the “FAS gene expression in liver tissue” value [4] was “significantly reduced”, the “PPAR-γ gene expression in liver tissue” value [4] was “significantly reduced” and the “SREBP-1 gene expression in liver tissue” value [4] was “significantly reduced”. The “aP2 gene expression in liver tissue” value [4] was “significantly reduced”, the “serum ALT level” value (C57BL6/J mice [5]) was “significantly decreased” and the “serum AST level” value (C57BL6/J mice [5]) was “significantly decreased”. The serum cholesterol level (C57BL6/J mice [5]) was “significantly reduced”, the serum triglyceride level (C57BL6/J mice [5]) was “significantly reduced” and the “cholesterol level in liver tissue” value (C57BL6/J mice [6]) was “significant reductions”. For the same compound, the “triglyceride level in liver tissue” value (C57BL6/J mice [6]) was “significant reductions”, the IGF-1 protein level (LC3A/B and IGF-1 [7]; IGF-1 increased by UFAs) was “decreases” and the “LC3A/B (indicator of autophagosome) protein level” value (LC3A/B and IGF-1 [7]; LC3A/B inhibited by UFAs) was “significant increases”.
